# Experimental data taken from article PMC4604124, “In Vitro Characterization of the Pharmacological Properties of the Anti-Cancer Chelator, Bp4eT, and Its Phase I Metabolites” (PLoS ONE, 2015).
# System: MCF-7 cells
# Assay: Epifluorescence microscopy, triple staining MDC / annexin V-FITC / propidium iodide
# Type: cell-based, human
# Conditions: Bp4eT 10 or 100 nM 72 h, rapamycin 1 nM 30 min
# Description: Markers used to assess autophagy/apoptosis/necrosis in MCF-7 cells and changes of lysosomal and mitochondrial morphology were observed using an Eclipse Ti inverted epifluorescence microscope (Nikon, Tokyo, Japan), that was equipped with a cooled digital camera Zyla 5.5 sCMOS (Andor Technology, Belfast, UK), and NIS-Elements C 4.1 software (Laboratory Imaging, Prague, Czech Republic). The MCF-7 cells were seeded in 6-well plates with cover slips on the bottom at a density of 150,000 cells/well and incubated as described above in the presence or absence of 10 or 100 nM Bp4eT.
# To assess the mechanism of cellular death after incubation with Bp4eT, triple staining with monodansyl cadaverine (MDC; 50 μM; λex = 390 nm; λem = 455 nm; Sigma-Aldrich), annexin V-FITC (5 μL/mL; λex = 495 nm; λem = 519 nm; Invitrogen, Carlsbad, CA, USA), and propidium iodide (5 μg/mL; λex = 560 nm; λem = 630 nm) was used. MDC is a marker of autophagosomes and lysosomes and results in blue fluorescence. As a positive control for autophagy, MCF-7 cells were incubated with 1 nM rapamycin (Sigma-Aldrich) for 30 min/37°C, which is an established inducer of autophagy. Annexin V has high affinity to phosphatidylserine, which is translocated to the surface of both early- and late-stage apoptotic cells. […]
smiles,measurement,value
"CO[C@H]1C[C@@H]2CC[C@@H](C)[C@@](O)(O2)C(=O)C(=O)N2CCCC[C@H]2C(=O)O[C@H]([C@H](C)C[C@@H]2CC[C@@H](O)[C@H](OC)C2)CC(=O)[C@H](C)/C=C(\C)[C@@H](O)[C@@H](OC)C(=O)[C@H](C)C[C@H](C)/C=C/C=C/C=C/1C [rapamycin, reference compound]","Staining for autophagy/apoptosis/necrosis (MDC, annexin V-FITC, propidium iodide)","enlarged cells with ample granular, cytoplasmic MDC staining"
